Patent US4267312A, “Anthracycline derivatives and process for preparing the same” (Sanraku-Ocean Co., Ltd., priority 1978, dated 1981)
Values after ≈ are worked out from the molar mass of the structure shown.

Experiments:
[1] = test system: murine leukemic L1210 cells; test: growth inhibition of murine leukemic L1210 cells in culture; format: cell-based; conditions: Mus musculus, RPMI 1640, 20% calf serum, 37° C., read-out: inhibition of control growth; for inhibition at 0.5 µg/mL: 0.5 μg/ml
Method: For example, L1210 cells were inoculated into a RPMI 1640 medium (Nissui, Rosewell Park Memorial Institute 1640) containing 20% calf serum at the cell density of 5×10^4 cells/ml and the compound in the present invention was simultaneously added to the medium at the concentration of 0.1 and 0.5 μg/ml and cultivated at 37° C. in a CO2 incubator.

[2] = test system: biosynthesis of DNA in L1210 cells; test: DNA biosynthesis in L1210 cells (incorporation of 14C-thymidine into acid-insoluble materials); format: cell-based, murine; conditions: Mus musculus, L1210, 1 h; 60 min, 37° C., 14C-thymidine 0.05 μCi/ml; read-out: IC50 of the incorporation of radioactivity into acid-insoluble materials, 14C-thymidine
Method: (§1) (2) L1210 cells were inoculated at 5×10^5 cells/ml into a RPMI 1640 medium containing 10% calf serum and cultivated at 37° C. for 1 to 2 hours in a CO2 incubator. The compound in the present invention at various concentrations and ^14 C-thymidine (0.05 μCi/ml) or ^14 C-uridine (0.05 μCi/ml) were added and incubated at 37° C. for 60 min. After stopping the pulse-labeling by addition of 10% trichloroacetic acid (TCA) to the reaction mixture, acid-insoluble materials were precipitated, washed 3 times with 5 to 10% TCA, and dissolved in a small amount of formic acid, and then the radioactivity of the solution was determined. Effects on the biosynthesis of DNA and RNA were shown by the 50% inhibition concentration (IC50) of the incorporation of radioactivity into acid-insoluble materials.

[3] = test system: biosynthesis of RNA in L1210 cells; test: RNA biosynthesis in L1210 cells (incorporation of 14C-uridine into acid-insoluble materials); format: cell-based, murine; conditions: Mus musculus, L1210, 1 h; 60 min, 37° C., 14C-uridine 0.05 μCi/ml; read-out: IC50 of the incorporation of radioactivity into acid-insoluble materials, 14C-uridine
Method: as §1

[4] = test system: leukemic L1210; test: antitumor activity in leukemic L1210-bearing mice; format: in vivo, BDF1 mice; conditions: in words
Method: (§2) For example, BDF1 mice were inoculated intraperitoneally with 1×10^6 cells/mouse. 24 hours after inoculation, the compound was intraperitoneally injected once daily for 10 days consecutively. […] At the dose of 10 mg/kg/day weight loss was observed, but general toxicity was less than daunomycin.

[5] = toxicity in mice; format: in vivo; conditions: in words
Method: as §2

[6] = test system: Sal. typhimurium; test: mutagenicity by the Ames' test

| Structure (SMILES) | inhibition at 0.5 µg/mL [1] | IC50 [2] | IC50 [3] | antitumor activity in leukemic L1210-bearing mice [4] | toxicity in mice compared with daunomycin [5] | mutagenicity relative to daunomycin [6] | inhibition at 0.1 µg/mL ([1]; 0.1 μg/ml) |
| --- | --- | --- | --- | --- | --- | --- | --- |
| COc1ccc(O)c2c1C(=O)c1c(O)c3c(c(O)c1C2=O)C[C@@](O)(C(C)O)C[C@@H]3O[C@H]1C[C@H](NC=O)[C@H](O)[C@H](C)O1 (stereo partly shown) [N-formyl-1-hydroxy-13-dihydrodaunomycin] | 16% | > 2.5 µg/mL | > 2.5 µg/mL | marked antitumor activity | lower toxicity than daunomycin | decrease about a half of daunomycin | – |
| COc1ccc(O)c2c1C(=O)c1c(O)c3c(c(O)c1C2=O)C[C@@](O)(C(C)O)C[C@@H]3O[C@H]1C[C@H](N)[C@H](O)[C@H](C)O1 (stereo partly shown) [1-hydroxy-13-dihydrodaunomycin] | 52.2% | 3.8 µg/mL (≈ 6.97 µM) | 1.8 µg/mL (≈ 3.3 µM) | marked antitumor activity | lower toxicity than daunomycin | decrease about a half of daunomycin | 10.8% |
